The values that follow come from patent US20250210201A1 (priority 2022, published 2025).

The target of one assay is T1, complex II (Rattus norvegicus, UniProt P21913+Q641Z9+Q6PCT8+Q920L2).
T1 construct: host or cells: rat PD model
Particulars: rat PD model; Jiang X et al. 2016; cited from earlier work.

The next assay concerns primary skin fibroblasts. The conditions noted are these: uncoupler as positive control (50 μM per method), 30 minutes.
For assay [1], the system named is mitochondiral complex I, II and IV. The conditions noted are these: Kumar M et al. 2020; worded as 'proposed'; cited from earlier work.
The next assay has as its system Complex I. Particulars: rat model; Amarsanaa K et al. 2021; cited from earlier work.

T1 sequence (Q920L2 35-656): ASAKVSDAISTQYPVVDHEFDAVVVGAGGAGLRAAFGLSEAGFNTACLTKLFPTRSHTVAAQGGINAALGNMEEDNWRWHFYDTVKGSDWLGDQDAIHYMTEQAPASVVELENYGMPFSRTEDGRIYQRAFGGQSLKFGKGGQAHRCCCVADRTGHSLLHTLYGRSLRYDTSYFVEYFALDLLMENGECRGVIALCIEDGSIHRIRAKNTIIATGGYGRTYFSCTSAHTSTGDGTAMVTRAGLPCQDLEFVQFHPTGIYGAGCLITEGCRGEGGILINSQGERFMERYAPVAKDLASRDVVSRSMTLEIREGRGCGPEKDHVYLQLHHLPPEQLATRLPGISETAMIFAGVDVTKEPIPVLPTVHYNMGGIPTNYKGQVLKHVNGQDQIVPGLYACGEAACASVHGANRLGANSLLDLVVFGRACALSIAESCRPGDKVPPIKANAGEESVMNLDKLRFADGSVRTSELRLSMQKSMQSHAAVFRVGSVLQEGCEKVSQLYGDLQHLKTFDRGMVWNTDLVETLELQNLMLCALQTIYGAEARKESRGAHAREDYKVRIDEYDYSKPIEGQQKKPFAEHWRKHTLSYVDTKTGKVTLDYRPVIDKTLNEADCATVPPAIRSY
T1 sequence (P21913 31-282): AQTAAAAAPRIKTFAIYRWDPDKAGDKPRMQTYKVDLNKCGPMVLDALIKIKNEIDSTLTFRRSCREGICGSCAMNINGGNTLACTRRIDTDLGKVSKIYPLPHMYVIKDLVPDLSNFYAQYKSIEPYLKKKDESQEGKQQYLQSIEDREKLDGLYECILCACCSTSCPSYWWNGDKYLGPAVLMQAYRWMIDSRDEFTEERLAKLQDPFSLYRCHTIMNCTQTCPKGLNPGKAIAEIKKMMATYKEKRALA
T1 sequence (Q641Z9 1-169): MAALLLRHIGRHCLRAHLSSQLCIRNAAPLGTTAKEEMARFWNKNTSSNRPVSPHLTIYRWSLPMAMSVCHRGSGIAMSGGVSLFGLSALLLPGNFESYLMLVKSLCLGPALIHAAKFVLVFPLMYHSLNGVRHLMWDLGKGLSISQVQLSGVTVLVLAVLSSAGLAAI
T1 sequence (Q6PCT8 57-159): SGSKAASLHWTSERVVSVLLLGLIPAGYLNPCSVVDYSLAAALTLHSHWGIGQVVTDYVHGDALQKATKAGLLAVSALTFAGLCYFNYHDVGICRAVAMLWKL
Experimental for primary skin fibroblasts: Primary skin fibroblasts (10,000 cells per well) were seeded into Cell Carrier Ultra 96-well plates. The next day, fibroblast medium was removed and replaced by FBS-deprived DMEM containing 100 nM Tetramethylrhodamine, Ethyl Ester, Perchlorate (TMRE), a fluorescent dye that specifically accumulates in active, polarized mitochondria, or vehicle only (DMSO). The mitochondrial OXPHOS (OXPHOS-mito) uncoupler carbonyl cyanide m-chlorophenyl hydrazone (CCCP) was used—at the concentration of 50 μM—as a positive control of TMRE staining. Nuclei were stained with 1 μg/ml Hoechst 33342. Cells were incubated in the dark at 37° C. for 30 minutes before proceeding with high-throughput automated confocal microscopy analysis. Z-stack images were acquired at 20× magnification using the CellVoyager CV8000 High-Content Screening System.
An in-house Matlab image processing pipeline was used to quantify TMRE signal. The mitochondria channel was sum-projected on the x-y plane and preprocessed using a DoG filter of 33 pixel side-length, and sigmas set to 1 and 1.5 pixels, prior to thresholding (>10). Connected components with less than 6 pixels were removed from mitochondrial analysis. Total mitochondrial TMRE fluorescence intensity per field was normalized to nuclear area. […] Nine fields per well and at least two wells per condition were assessed for each of the three independent biological replicates.

With `COc1ccc(Cn2cc(-c3cc(C(F)(F)F)nc(S(C)(=O)=O)n3)ccc2=O)cc1OC` [Compound A, 1-(3,4-dimethoxybenzyl)-5-(2-(methylsulfonyl)-6-(trifluoromethyl)pyrimidin-4-yl) pyridin-2 (1H)], on complex II, the “dopaminergic neurons' death” value is “preventing dopaminergic neurons' death”. On to `N#CC(C#N)=NNc1ccc(OC(F)(F)F)cc1` [FCCP, carbonyl cyanide p-trifluoromethoxyphenyl hydrazone], for which the “TMRE fluorescence (mitochondrial membrane potential, Δψm)” value with primary skin fibroblasts is “robust reduction of TMRE fluorescence”. Consider `[Na+].[SH-]` [NaHS], for which the “complex I, II and IV mediated oxygen consumption rate” value in assay [1] is “increasing mitochondiral complex I, II and IV mediated oxygen consumption rate”. On to `COc1ccc(-c2cc(=O)c3c(OC)c(OC)c(OC)c(OC)c3o2)cc1OC` [Nobiletin, 5,6,7,8,3′,4′-hexamethoxyflavone], for which the “activity of complex I” value with Complex I is “restore activity of complex I”.
